Square brackets hold non-standard residues; d marks the D form. Ends that are not written are not given here. * marks the point of attachment. Azp = azidopentanoic acid, [N-]=[N+]=NCCCCC(=O)*; Cit = NC(=O)NCCC[C@H](N)C(=O)O
Legend:
[1] = system: T cells; test: In vitro T cell recognition of modified E7 and Reps1 peptide antigen fragments; format: cell-based; settings: E7 (RAHYNIVTF) and Reps1 (AQLANDVVL) fragments modified at N- or C-terminus; FIGS. 28A and B
Text: To study the impact of the solubilizing block and extensions on peptide antigen recognition by T cells in vitro, two model antigens, E7 ([…]) and Reps1 ([…]), modified at the N-terminal and/or C-terminal positions were produced by solid-phase peptide synthesis (Tables 25 and 26), and then screened in vitro for T cell recognition (FIG. 28).

[2] = format: physicochemical; settings: pH 7.4
[3] = pH-responsiveness of carboxylic acid amphiphiles by turbidity (OD at 490 nm); format: physicochemical; settings: 0.1 mM in 1×PBS at pH 7.4, 7.0 or 6.5
[4] = system: antigen specific CD4 T cells expressing FOXP3; test: Proportion of T cells expressing Tbet or Foxp3; Treg induction by tolerance vaccines with inhibitors and immunostimulants; format: cell-based
[5] = system: OT-II cells; test: In vitro induction of regulatory T cells by tolerance vaccine formulations in co-culture of CD11c+ APCs and OT-II cells, flow cytometry; format: cell-based; settings: 500 nM peptide antigen conjugate, three days
[6] = Torin-1 combined with TLR-7/8a 2BXy, peptide antigen conjugate 500 nM

Compound: 341: "modification of the C-terminus of peptide antigen fragments (e.g., Compounds 341 and 362) is more well tolerated" (RAHYNIVTFSV[Cit][Azidolysine]-NH2) [Compound 341]
- potency for T cell recognition [1]: more well tolerated

Compound: 343: "modification of the N-terminus of peptide antigen fragments (e.g., Compounds, 343 and 364) negatively impacts potency" (Azp-V[Cit]RAHYNIVTFS-NH2; SMILES CC[C@H](C)[C@H](NC(=O)[C@H](CC(N)=O)NC(=O)[C@H](Cc1ccc(O)cc1)NC(=O)[C@H](Cc1c[nH]cn1)NC(=O)[C@H](C)NC(=O)[C@H](CCCNC(=N)N)NC(=O)[C@H](CCCNC(N)=O)NC(=O)[C@@H](NC(=O)CCCCN=[N+]=[N-])C(C)C)C(=O)N[C@H](C(=O)N[C@H](C(=O)N[C@@H](Cc1ccccc1)C(=O)N[C@@H](CO)C(N)=O)[C@@H](C)O)C(C)C) [Compound 343]
- potency for T cell recognition [1]: negatively impacts potency

Compound: 364: "modification of the N-terminus of peptide antigen fragments (e.g., Compounds, 343 and 364) negatively impacts potency" (Azp-V[Cit]AQLANDVVL-NH2; SMILES CC(C)C[C@H](NC(=O)[C@@H](NC(=O)[C@@H](NC(=O)[C@H](CC(=O)O)NC(=O)[C@H](CC(N)=O)NC(=O)[C@H](C)NC(=O)[C@H](CC(C)C)NC(=O)[C@H](CCC(N)=O)NC(=O)[C@H](C)NC(=O)[C@H](CCCNC(N)=O)NC(=O)[C@@H](NC(=O)CCCCN=[N+]=[N-])C(C)C)C(C)C)C(C)C)C(N)=O) [Compound 364]
- potency for T cell recognition [1]: negatively impacts potency

Compound: KKKKKKK-SGSGSGSGSGSGSGSGSGSGSGSG-(Lys(N3-DBCO))-Ahx-(F′)5 [Compound 91]
- Size (diameter, nm) [2]: 477 nm

Compound: {Succinic acid}4K2K{Lys(N3-DBCO)}-Ahx-2B3W2 [Compound 274]
- pH-responsiveness: aggregation / particle size stability by turbidity (OD at 490 nm) [3]: stable particle sizes down to at least pH 7.0

Compound: CCC(=O)N1CCN(c2ccc(-n3c(=O)ccc4cnc5ccc(-c6cnc7ccccc7c6)cc5c43)cc2C(F)(F)F)CC1 [Torin-1, Torin 1]
- Magnitude of Tregs induced by tolerance vaccines ([4]; Torin-1 combined with TLR-7/8a 2BXy, versus other immunostimulants): highest magnitude Treg responses
- Magnitude of Treg responses, fold higher than Torin-1 alone [4, 6]: 2 fold
- Magnitude of Treg responses, fold higher than the vaccine without Torin-1 [4, 6]: 8 fold
- Proportion of antigen specific CD4 T cells expressing FOXP3 ([4]; compared with SR1555, rapamycin and ITE, peptide antigen conjugate 500 nM): higher proportion of antigen specific CD4 T cells expressing FOXP3
- proportion of Tregs (Treg/Tbet) relative to formulations with rapamycin [5]: 2-4 fold
- number and proportion of Tregs induced ([5]; vaccines with inhibitor vs without inhibitors, FIGS. 25 and 26): significantly higher
